Experimental data published in patent publication US11331291B2, “Method of and improved composition for treating triterpene-responsive conditions, diseases or disorders” (PHOENIX BIOTECHNOLOGY, INC., priority 2017, dated 2022).
Where two headings read alike, the source gives them in different places.

Tests used:
[1] = test system: ARE target genes (Srx, Hmox1); experiment: ARE gene expression qPCR in rat primary corticostriatal co-cultures; type: cell-based
Protocol: FIG. 3 (prior art: Van Kanegan: vide supra) depicts the results of ARE gene expression assays for Fraction 0-4 and the individual triterpenes oleanolic acid, ursolic acid, betulinic acid and uvaol (also referred to as uvalol). “X” symbols denote concentrations of compounds which induced toxicity and for which recovery of residual mRNA was insufficient to support qPCR analysis. Rat primary corticostriatal co-cultures were treated for 6 h with Fraction 0-4 (in μg/ml) or oleanolic acid, ursolic acid, betulinic acid, or uvaol (all in μM) at the concentrations indicated, then harvested and processed for qPCR analysis of the ARE target genes shown. Quantitative RNA values were normalized to the GAPDH reference control and fold-expression changes are expressed relative to the DMSO-carrier only condition (“--”) set to a value of 1. Dark bars denote statistically significant differences with respect to the DMSO-carrier only control by a Student's t-test at p<0.05.
FIG. 4 depicts the results of expression assays for Fraction 0-4 and the individual triterpenes ursolic acid and betulinic acid at more closely-spaced concentration ranges. Rat primary corticostriatal co-cultures were treated for 6 h with Fraction 0-4 (in μg/ml) or ursolic acid and betulinic acid (in μM) at the concentrations indicated, then harvested and processed for qPCR analysis of the ARE target genes shown. Quantitative RNA values were normalized to the GAPDH reference control and fold-expression changes are expressed relative to the DMSO-carrier only condition (“--”) set to a value of 1. Dark blue bars denote statistically significant differences with respect to the DMSO-carrier only control by a Student's t-test at p<0.05.
FIGS. 10A and 10B depict the results of comparative Srx (FIG. 10A) and Hmox1 (FIG. 10B) expression assays for PBI-05204, PBI-04711 (also referred to as Fxn 0-4), oleanolic acid (O), ursolic acid (U), betulinic acid (B) and combinations of the triterpenes present at the specified molar ratios. Quantitative RNA values were normalized to the GAPDH reference control and fold-expression changes are shown relative to the DMSO-carrier only condition set to a value of 1. Dark blue bars denote statistically significant differences with respect to the DMSO-carrier only control by a Student's t-test at p<0.05. Striped, red bars denote conditions which induced excessive levels of ARE gene expression, namely, by more than 10-fold.
For qPCR quantification of ARE target gene expression levels, cortical and striatal neurons were plated onto 96-well plates containing mature glial cultures and cultured for 96 h. Composition was added to cultures at the indicated concentrations for 6 h. At the end of the treatment period, cells were lysed and total RNA was isolated using Absolutely RNA mini-prep kits (Agilent Technologies/Stratagene). cDNA was generated using oligo dT primers and Superscript II reverse transcriptase (Invitrogen). Resulting cDNA was used for quantitative PCR of gene transcripts using SYBR Green Real-Time PCR Master Mix (Life Technologies) and the following mouse primers, for: Gcic (forward-5′ […]-3′ (SEQ ID NO. 1) and reverse-5′-[…]-3′) (SEQ ID NO. 2), Ngo1 (forward-5′-GCCCGCATGCAGATCCT-3′ (SEQ ID NO. 3) and reverse 5′-[…]3′) (SEQ ID NO. 4), Srx (forward-5′-[…]-3′ (SEQ ID NO. 5) and reverse-5′-[…]-3′) (SEQ ID NO. 6), and Hmox1 (forward-5′-[…]-3′ (SEQ ID NO. 7) and reverse-5′-[…]-3′) (SEQ ID NO. 8) (Integrated DNA Technologies). […]

[2] = test system: primary corticalstriatal neuronal co-cultures containing glia; type: cell-based
Protocol: FIGS. 6A, 6B, 7A, 7B, 8A, and 8B depict the results of comparative cellular toxicities of the triterpenes to primary corticalstriatal neuronal co-cultures containing glia evaluated according to the example below: ursolic acid (FIGS. 6A, 6B), betulinic acid (FIGS. 7A, 7B) and oleanolic acid (FIGS. 8A, 8B). For FIGS. 6A, 7A and 8A, propidium iodide was added for one hour then the numbers of PI-positive cells were scored under automated high-content analysis on the Cellomics ArrayScan VTI. For FIGS. 6B, 7B and 8B, MTS substrate was added for two hours then co-culture wells were measured for absorbance at 450 nm using a multi-well plate reader.
We determined whether the reduced neuroprotective activity of Compositions I and II might be due to cellular toxicity of one or more of the individual triterpenes. We conducted a direct study of the cellular toxicities of oleanolic acid (OA), ursolic acid (UA), and betulinic acid (BA) using two independent measures of cell death: propidium iodide (PI) staining for nuclear breakdown and the MTS assay for cell metabolic activity. […] The MTS assay is a well-based assay in which cleavage of a tetrazolium reporter by mitochondrial enzymes produces colorimetric readout and reports relative numbers of healthy cells.

[3] = test system: ARE target genes (Srx, Hmox1); settings: 6 h; prior art FIG. 3; compared among UA, BA, OA; cited from earlier work
[4] = test system: cortical pyramidal neurons; settings: prior art FIG. 5; equimolar basis; cited from earlier work

| Compound | cellular toxicity ([1]; even at low concentration) | concentration leading to 50% loss of metabolic activity [2] [µM] | inducing ARE gene expression as single agent [3] | ARE gene expression induction ([1]; single agent, any concentration tested, FIGS. 10A, 10B) | neuroprotective activity of individual triterpenes in OGD assay [4] | cellular toxicity [1] | upregulation of Srx and Hmox1 ([1]; 6 h, closely-spaced concentrations, FIG. 4) | ARE gene expression induction (Srxn1) ([1]; single agent at 9 μM, relative to DMSO) [fold] |
| --- | --- | --- | --- | --- | --- | --- | --- | --- |
| C=C(C)[C@@H]1CC[C@]2(C(=O)O)CC[C@]3(C)[C@H](CC[C@@H]4[C@@]5(C)CC[C@H](O)C(C)(C)[C@@H]5CC[C@]43C)[C@@H]12 [BA, betulinic acid] | caused cellular toxicity | 5 to 15 | – | – | – | – | – | – |
| CC1(C)CC[C@]2(C(=O)O)CC[C@]3(C)C(=CC[C@@H]4[C@@]5(C)CC[C@H](O)C(C)(C)[C@@H]5CC[C@]43C)[C@@H]2C1 [OA, oleanolic acid] | – | – | relatively inactive | not able to induce appreciable ARE gene expression | higher activity than UA | – | – | – |
| C[C@H]1[C@H](C)CC[C@]2(C(=O)O)CC[C@]3(C)C(=CC[C@@H]4[C@@]5(C)CC[C@H](O)C(C)(C)[C@@H]5CC[C@]43C)[C@H]12 [UA, ursolic acid] | – | 5 to 15 | considerably more potent | – | variable activity | caused cellular toxicity | clear upregulation | > 10 |
